From BindingDB's records for PubMed 1930610 (Eli Lilly, 1991)
Counter-ions that a name gives are not always drawn.

Key:
[1] = biological target: 5-hydroxytryptamine 1D receptor (Bos taurus, UniProt Q8MI13)
[2] = biological target: 5-hydroxytryptamine receptor 1B (Rattus norvegicus, UniProt P28564)
[3] = biological target: Beta-arrestin-2 (Bos taurus, UniProt P32120)
[4] = biological target: T1, 5-hydroxytryptamine receptor 3A (Rattus norvegicus, UniProt P35563)
T1 sequence (P35563 whole entry): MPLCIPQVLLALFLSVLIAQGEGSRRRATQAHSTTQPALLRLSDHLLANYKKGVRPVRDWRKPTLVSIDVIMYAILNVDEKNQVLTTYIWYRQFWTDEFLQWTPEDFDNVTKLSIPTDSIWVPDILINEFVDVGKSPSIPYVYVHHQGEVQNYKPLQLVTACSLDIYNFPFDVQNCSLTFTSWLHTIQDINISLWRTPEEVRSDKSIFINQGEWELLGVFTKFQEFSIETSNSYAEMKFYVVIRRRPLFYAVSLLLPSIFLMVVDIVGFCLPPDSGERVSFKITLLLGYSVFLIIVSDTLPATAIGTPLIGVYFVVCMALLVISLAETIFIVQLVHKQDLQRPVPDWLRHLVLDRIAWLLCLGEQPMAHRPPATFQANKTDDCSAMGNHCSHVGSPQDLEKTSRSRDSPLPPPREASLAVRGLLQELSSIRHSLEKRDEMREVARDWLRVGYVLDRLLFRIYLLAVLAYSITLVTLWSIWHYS

[5] = biological target: 5-hydroxytryptamine receptor 2A (Rattus norvegicus, UniProt P14842)
[6] = biological target: T2, 5-hydroxytryptamine receptor 1A (Rattus norvegicus, UniProt P19327)
T2 sequence (P19327 whole entry): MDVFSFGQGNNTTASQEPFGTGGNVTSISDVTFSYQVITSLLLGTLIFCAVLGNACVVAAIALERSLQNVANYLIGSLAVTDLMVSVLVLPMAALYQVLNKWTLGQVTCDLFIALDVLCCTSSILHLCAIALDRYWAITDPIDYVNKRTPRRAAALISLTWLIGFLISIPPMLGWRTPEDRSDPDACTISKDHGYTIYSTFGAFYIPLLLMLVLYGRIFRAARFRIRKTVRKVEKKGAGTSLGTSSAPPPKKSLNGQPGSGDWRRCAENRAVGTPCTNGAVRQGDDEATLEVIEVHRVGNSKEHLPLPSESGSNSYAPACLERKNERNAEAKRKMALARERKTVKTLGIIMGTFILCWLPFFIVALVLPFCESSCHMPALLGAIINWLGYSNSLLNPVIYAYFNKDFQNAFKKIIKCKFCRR

Sequence of 5-hydroxytryptamine receptor 1B (P28564 whole entry): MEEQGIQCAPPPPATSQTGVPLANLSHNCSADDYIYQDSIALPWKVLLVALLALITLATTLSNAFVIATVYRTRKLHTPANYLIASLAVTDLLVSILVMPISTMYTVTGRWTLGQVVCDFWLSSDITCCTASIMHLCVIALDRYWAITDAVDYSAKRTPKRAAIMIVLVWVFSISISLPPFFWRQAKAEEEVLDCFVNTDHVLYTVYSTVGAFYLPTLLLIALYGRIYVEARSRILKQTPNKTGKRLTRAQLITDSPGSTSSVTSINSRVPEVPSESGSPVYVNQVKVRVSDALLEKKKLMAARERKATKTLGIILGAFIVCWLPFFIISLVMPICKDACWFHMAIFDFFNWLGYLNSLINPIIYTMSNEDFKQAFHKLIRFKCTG
Sequence of 5-hydroxytryptamine 1D receptor (Q8MI13 whole entry): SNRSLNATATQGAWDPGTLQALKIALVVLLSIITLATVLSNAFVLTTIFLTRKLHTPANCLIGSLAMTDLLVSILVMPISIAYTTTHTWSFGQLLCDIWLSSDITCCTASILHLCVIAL
Sequence of Beta-arrestin-2 (P32120 whole entry): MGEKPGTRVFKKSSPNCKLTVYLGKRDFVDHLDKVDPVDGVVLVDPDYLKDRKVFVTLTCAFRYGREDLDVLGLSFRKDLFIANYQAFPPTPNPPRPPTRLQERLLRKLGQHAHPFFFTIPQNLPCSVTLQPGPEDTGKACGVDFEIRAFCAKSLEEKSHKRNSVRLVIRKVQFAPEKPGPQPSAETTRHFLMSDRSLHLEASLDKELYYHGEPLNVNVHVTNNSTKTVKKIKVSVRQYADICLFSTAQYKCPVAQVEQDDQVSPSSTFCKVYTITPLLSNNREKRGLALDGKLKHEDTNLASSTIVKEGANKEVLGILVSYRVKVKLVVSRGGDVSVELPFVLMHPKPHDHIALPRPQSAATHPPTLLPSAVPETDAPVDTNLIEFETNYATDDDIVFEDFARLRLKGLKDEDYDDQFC
Sequence of 5-hydroxytryptamine receptor 2A (P14842 whole entry): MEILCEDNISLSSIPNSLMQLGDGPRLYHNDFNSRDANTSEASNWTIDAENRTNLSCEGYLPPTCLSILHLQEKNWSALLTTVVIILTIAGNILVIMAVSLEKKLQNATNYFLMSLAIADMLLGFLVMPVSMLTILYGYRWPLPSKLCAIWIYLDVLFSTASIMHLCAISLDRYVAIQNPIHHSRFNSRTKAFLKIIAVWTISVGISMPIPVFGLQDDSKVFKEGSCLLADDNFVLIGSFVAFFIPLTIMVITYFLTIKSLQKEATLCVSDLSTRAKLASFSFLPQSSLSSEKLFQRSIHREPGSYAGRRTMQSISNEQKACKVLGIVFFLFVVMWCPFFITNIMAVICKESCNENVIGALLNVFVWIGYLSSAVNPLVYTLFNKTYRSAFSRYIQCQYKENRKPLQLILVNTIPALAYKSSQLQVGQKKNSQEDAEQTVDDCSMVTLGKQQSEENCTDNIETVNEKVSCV

Structure (SMILES)	Ki [1] [µM]	Ki [2] [µM]	Ki [3] [µM]	Ki [4] [µM]	Ki [5] [µM]	Ki [6] [µM]
CN(C)CCCC1(c2ccc(F)cc2)OCc2cc(C#N)ccc21 (configuration not stated) [CITALOPRAM HYDROBROMIDE]	> 10	> 10	3.31	> 10		
CNCC[C@@H](Oc1ccc(C(F)(F)F)cc1)c1ccccc1 [(3R)-N-methyl-3-phenyl-3-[4-(trifluoromethyl)phenoxy]propan-1-amine]	3.89		3.63			
c1ccc2c(CCC3CCNCC3)c[nH]c2c1	3.63	4.47	3.24	3.24	0.794	9.12
CNCC[C@@H](Oc1ccc(C(F)(F)F)cc1)c1ccccc1 [Prozac]	4.27		0.269			
CNCC[C@@H](Oc1ccc(C(F)(F)F)cc1)c1ccccc1 [Fluoxetine-R-(-)]	> 10		0.155			
Fc1ccc([C@@H]2CCNC[C@H]2COc2ccc3c(c2)OCO3)cc1 [PAROXETINE]	4.9	> 10	> 10	2.63		> 10
COc1ccc(OC[C@H]2CN(C)CC[C@@H]2c2ccccc2)cc1 [(3R,4S)-3-(4-Methoxy-phenoxymethyl)-1-methyl-4-phenyl-piperidine]	3.72	9.33	1.91	> 10	0.407	3.16
